Assay results from US8637493B2, “Methods for treating glioblastoma” (University of Massachusetts, priority 2009, dated 2014).

How the values were obtained:
Hes1 = experiment: RT-PCR / qRT-PCR of Notch target Hes1 mRNA in neurosphere cultures after DAPT; format: cell-based, human; settings: for decrease of Hes1 mRNA level: 48 hours after treatment, RT-PCR; for Hes1 expression (qRT-PCR): 1 μM DAPT, 48 hours
Procedure: TMZ concentrations for each culture were selected based on previous experiments (Mihaliak et al., Cancer Letts. 296, 168-177 (2010)) DAPT and LY concentrations were chosen for each culture based on the decrease in Hes1 and Hey1 expression. RNA was isolated from the cultures 48 hours after DAPT treatment, and Hes1 and Hey1 cDNA expression levels were analyzed by PCR or qPCR.
RT-PCR and RT-qPCR were performed as follows. Neurosphere cultures were pelleted and tumor tissues from subcutaneous xenografts were broken into a powder using a BioPulverizer (Biospec Products, Inc., Bartlesville, Okla.). RNA was isolated from neurosphere cultures and frozen tumor samples using TRIzol Reagent (Invitrogen, Carlsbad, Calif.), following the manufacturer's protocol. RNA was treated with DNase I, Amplification Grade (Invitrogen, Carlsbad, Calif.). cDNA was made using the SuperScript II Reverse Transcription (RT) Kit with Oligo(dT)12-18 primers (Invitrogen, Carlsbad, Calif.), followed by a 20 minute incubation at 37° C. with RNaseH. PCR was carried out using Taq DNA Polymerase, following the manufacturer's protocol (Invitrogen, Carlsbad, Calif.). Real time qPCR was carried out using QuantiTect SYBR Green (QIAGEN, Valencia, Calif.). Hes1 and β-Actin primers were developed using Primer3 (Rozen and Skaletsky, Methods Mol Biol 2000; 132: 365-86). Hes1 forward primer: 5″ […] 3″ (SEQ ID NO:1) and reverse primer: 5″ […] 3″ (SEQ ID NO:2). β-Actin (RT-PCR) forward primer: 5″[…] 3″ (SEQ ID NO:3) and reverse primer: 5″ […] 3″ (SEQ ID NO:4). β-Actin (qRT-PCR) forward primer: 5″[…] 3″ (SEQ ID NO:5) and reverse primer: 5″ […] (SEQ ID NO:6). Primers for Hey1 (Osipo et al., Oncogene 2008; 27: 5019-32), Notch1 (Lefort et al., Genes Dev 2007; 21: 562-77), Notch2 (O'Neill et al., Am J Pathol 2007; 171: 1023-36), Notch3 (Buchler et al., Ann Surg 2005; 242: 791-800, discussion −1) and Notch4 (Buchler et al., Ann Surg 2005; 242: 791-800, discussion −1) were previously published, RT-PCR products were analyzed on 2% agarose gels. tantification of band intensity for DAPT treated lines was determined using ImageJ (Rasband W S. ImageJ, U.S. National Institutes of Health, Bethesda, Md., USA. 1997-2004). cDNA levels for qRT-PCR products were calculated using the PFAFFL method (Pfaffl, Nucleic Acids Res 2001; 29: e45).

[1] = Toxicity by body weight during drug administration
Procedure: Tolerance of the drug treatments was determined by measuring the weight of the mice during the period of drug administration.
During drug administration, toxicity was determined by weight loss.

GS8-26 = experiment: Neurosphere formation / recovery / secondary neurosphere assay, GS8-26; format: cell-based, human
Procedure: The effect of chemotherapy on neurosphere formation was assayed in glioma neurosphere cultures. Cultures are treated with a single dose of the agent, e.g., TMZ and multiple doses of a GSI, e.g., DAPT to inhibit the Notch pathway. After the Treatment phase, the number of initial spheres (counted about 7 days after TMZ treatment) represents the number of proliferating CSC/progenitors (FIG. 1 for schematic). Recovery (counted 14 days after TMZ treatment) includes enlargement of the initial spheres and new spheres formed when CSC/progenitor cells quiescent as a result of chemotherapy resume cell proliferation. […] The cells used included U87NS, a neurosphere culture converted to neurosphere growth in defined medium from U87MG (an old Swedish line that is grown in conventional serum conditions); GS7-2, GS8-26 and GS6-22 primary neurosphere cultures that were obtained from grade IV GBM patient tumor samples and AS5-15, which was obtained from a grade III anaplastic astrocytoma.
To determine the effects of TMZ plus DAPT neurospheres, cells were plated as previously described (Mihaliak et al., Cancer Letts. 296, 168-177 (2010)). Immediately after plating, cells were treated with DMSO, DAPT-only, LY411,575 (LY)-only TMZ-only, TMZ+DAPT or TMZ+LY. The initial neurospheres were counted on day 7 for the converted cell lines and on day 10 for the slower growing primary lines. Neurosphere recovery was measured on day 14 or 20. The neurospheres were dissociated, re-plated and secondary neurosphere formation was measured on day 21 or 30.
Neurosphere cultures were dissociated to single cell suspensions by pH dissociation followed by filtration through 40 μm screens. […] Neurospheres consisting of 10 or more cells were counted under a light microscope on day 7 for the converted cell lines. Primary lines have a slightly longer doubling time and were counted on day 10. […] Neurospheres from the recovery period were counted on day 14 or day 20. […] The number of secondary neurospheres formed by converted cell lines and primary cultures were counted on day 21 or day 30, respectively. […]

U87NS-pMIG = experiment: Neurosphere recovery assay, empty vector U87NS-pMIG; format: cell-based, human; settings: empty vector control
Procedure: (§1) Neurosphere cultures were dissociated to single cell suspensions by pH dissociation followed by filtration through 40 μm screens. For the neurosphere assay, 3,000 cells/ml of defined medium were seeded in 6-well plates. Immediately after plating, cells were treated with DMSO (Research Organics, Cleveland, Ohio) carrier control, TMZ-only, DAPT-only, or TMZ+DAPT. Additional DAPT was added on days 2 and 4. Neurospheres consisting of 10 or more cells were counted under a light microscope on day 7 for the converted cell lines. Primary lines have a slightly longer doubling time and were counted on day 10. After counting the neurospheres from the initial treatment, 2 ml of fresh defined medium was added to each well. DAPT was also added once more to the DAPT-only and TMZ+DAPT samples, and the cells were incubated for an additional 7 or 10 days. Neurospheres from the recovery period were counted on day 14 or day 20. To analyze secondary neurosphere formation, cells were collected, pelleted and dissociated to a single cell suspension by the pH method. Cells from each well were re-seeded into 6-well plates with 2 ml of defined medium. The number of secondary neurospheres formed by converted cell lines and primary cultures were counted on day 21 or day 30, respectively. All recovery assays were repeated with a minimum of 6 replicate sets of time points. […]

U87NS-NICD = experiment: Neurosphere recovery assay, U87NS-NICD (constitutive Notch1 intracellular domain); format: cell-based, human
Procedure: as §1

## C[C@H](NC(=O)Cc1cc(F)cc(F)c1)C(=O)N[C@H](C(=O)OC(C)(C)C)c1ccccc1 [DAPT, N-[N-(3,5-difluorophenacetyl)-L-alanyl]-(S)-phenylglycine t-butyl ester]
Hes1; U87NS, DAPT 1 μM
  decrease of Hes1 mRNA level: 72%
Hes1; U87NS-NICD
  Hes1 expression (qRT-PCR): minimal decrease
Hes1; U87NS-pMIG
  Hes1 expression (qRT-PCR): decreased
Hes1; U373NS, DAPT 5 μM
  decrease of Hes1 mRNA level: 76%

## Cn1nnc2c(C(N)=O)ncn2c1=O [TMZ, temozolomide]
[1]
  body weight, initially after TMZ injections: slight weight loss
  body weight, remainder of treatment / final weight: no significant weight difference
GS8-26; day 20 relative to day 10, DAPT 5 μM
  recovery: increase in the number of neurospheres: 1.6 fold
GS8-26; day 30, P<0.001
  secondary neurosphere formation, TMZ-only treated culture relative to TMZ+DAPT treated culture: 25 fold
GS8-26; secondary neurospheres divided by recovery neurospheres
  average number of cells per neurosphere capable of self-renewal: 31 cells per neurosphere
U87NS-pMIG
  recovery: increase in neurospheres: 1.9 fold
U87NS-NICD
  recovery: increase in neurospheres: 2.3 fold
